Experimental data from publication PMC13429874, “ABHD2 activity is not required for the non-genomic action of progesterone on human sperm” (Human Reproduction (Oxford, England), 2026).
Entries after “also recorded” stand apart in the source; their conditions may differ. Read-outs that look alike come from different tables or passages of the source.

Legend:
ABHD2^L33–E425 [1] = molecular target: T1, ABHD2^L33–E425 (Homo sapiens, UniProt P08910); experiment: Differential scanning fluorimetry (DSF) with purified ABHD2^L33–E425; format: binding; details: for effect on heat-induced denaturation of ABHD2^L33–E425 (DSF binding): 40 µM steroid; for ΔTm shift for ABHD2^L33-425 determined by DSF: purified protein
T1 construct: expression for ABHD2 amino acids L33–E425, in which a predicted transmembrane domain (amino acids 1–32) is removed; His6-FLAG (N); made in house; host or cells: E. coli BL21(DE3)-R3-pRARE2
T1 sequence (P08910 33-425): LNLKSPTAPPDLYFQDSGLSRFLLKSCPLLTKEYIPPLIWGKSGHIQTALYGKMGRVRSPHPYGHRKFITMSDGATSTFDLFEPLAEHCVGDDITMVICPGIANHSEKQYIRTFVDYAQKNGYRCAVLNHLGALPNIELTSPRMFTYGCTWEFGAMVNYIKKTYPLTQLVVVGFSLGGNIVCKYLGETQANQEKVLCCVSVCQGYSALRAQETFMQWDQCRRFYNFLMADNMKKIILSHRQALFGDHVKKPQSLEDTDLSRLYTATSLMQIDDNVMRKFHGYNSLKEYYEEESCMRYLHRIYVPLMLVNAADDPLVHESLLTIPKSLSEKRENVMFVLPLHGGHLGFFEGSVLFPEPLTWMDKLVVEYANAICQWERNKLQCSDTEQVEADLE

[2] = molecular target: T2, full-length human ABHD2 (ABHD2^FL) (Homo sapiens, UniProt P08910); experiment: ABHD2^FL enzymatic activity assay with 7-HCA substrate; format: biochemical; details: for IC50: Supplementary Table S2, read-out: IC50 measured in ABHD2^FL in the 7-HCA Assay
T2 construct: TEV site-eGFP-8xHis (C, cleaved yes); made in house; host or cells: SF9 insect cells (baculovirus)
T2 sequence (P08910 1-425): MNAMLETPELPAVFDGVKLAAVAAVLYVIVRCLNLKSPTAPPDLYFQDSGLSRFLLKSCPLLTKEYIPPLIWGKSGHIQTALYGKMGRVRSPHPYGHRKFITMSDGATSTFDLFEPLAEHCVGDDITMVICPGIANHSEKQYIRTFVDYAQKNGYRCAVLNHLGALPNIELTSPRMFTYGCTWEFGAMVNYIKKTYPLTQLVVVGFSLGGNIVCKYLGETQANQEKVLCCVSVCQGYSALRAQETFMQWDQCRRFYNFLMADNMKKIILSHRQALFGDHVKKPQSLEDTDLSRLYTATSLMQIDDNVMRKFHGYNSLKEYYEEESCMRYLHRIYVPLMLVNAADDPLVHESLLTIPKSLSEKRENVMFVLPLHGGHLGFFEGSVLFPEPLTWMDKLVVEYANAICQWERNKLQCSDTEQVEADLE

ABHD2^L33–E425 [3] = molecular target: T1, ABHD2^L33–E425; experiment: ABHD2^L33-E425 fluorometric enzymatic activity assay with 7-HCA substrate; format: biochemical; details: for IC50: 10 nM enzyme, 10 µM 7-HCA, read-out: IC50 for ABHD2^L33-425, fluorometric assay using 7-HCA
human sperm [4] = experiment: Sperm intracellular Ca2+ measurements (Fluo-4); format: cell-based; details: for compound-evoked changes in [Ca2+]i: 10 µM compound; for effect on progesterone-induced Ca2+ signal (amplitude and waveform): compounds 10 µM, TS150 60 µM, progesterone 3 µM
Method: Measurements of the changes in sperm intracellular Ca^2+ concentration ([Ca^2+]i) were performed on motile human sperm purified by swim-up. Semen samples were allowed to liquefy for 15–60 min at 37°C, and 0.5–1 ml liquified semen was layered beneath 4 ml human tubal fluid medium (HTF; 97.8 mM NaCl, 4.69 mM KCl, 0.2 mM MgSO4, 0.37 mM KH2PO4, 2.04 mM CaCl2, 2.78 mM glucose, 0.33 mM sodium pyruvate, 21.4 mM lactic acid, 4 mM NaHCO3, and 21 mM HEPES pH 7.35 adjusted with NaOH) in 50 ml conical tubes. Motile sperm were allowed to swim up into the HTF for 60–90 min at 37°C, collected, washed twice (700 × g, 20 min, 37°C), and resuspended in HTF containing 3 mg/ml HSA at a density of 1 × 10^7 sperm/ml. Changes of [Ca^2+]i in motile human sperm were measured as previously described ([Rennhack et al., 2018]), using a fluorescence plate-reader assay (FLUOstar Omega, BMG LABTECH) with 384-well plates. Swim-up-purified sperm were loaded with Fluo4-AM (5 μM, Thermo Fisher Scientific, Waltham, MA, USA) and Pluronic F-127 (0.05% w/v) for 20 min at 37°C. Excess dye was removed by centrifugation at 700 × g for 5 min, supernatant removal, and resuspension to 5 × 10^6 sperm/ml in HTF.
For recordings, wells of a 384-well plate were filled with 50 μl of the dye-loaded sperm suspension. Fluorescence was excited at 480 nm, and emission was recorded at 520 nm using a plate reader (Fluostar Omega, BMG Labtech). After establishing a baseline for at least 60 s, 25 µl test compound solutions were added and the fluorescence response recorded. After 4 min, 7.5 µl progesterone was added to reach a final concentration of 3 µM, and ensuing changes in fluorescence were recorded. For the analysis of compound-evoked Ca^2+ signal, basal fluorescence (F0) was determined prior to compound addition. For the determination of inhibitory effects of compounds on progesterone-evoked Ca^2+ signals, basal fluorescence (F0) was determined before progesterone addition. The CatSper inhibitor TS150 ([Schierling et al., 2023]) was used as a control. Each compound was tested in technical duplicates across ≥3 biological replicates, using sperm from at least two donors, and performed on at least two separate days.
Data analysis and graphical representation were performed with GraphPad Prism software version 10.6.1 (San Diego, CA, USA). Changes in Fluo-4 fluorescence are depicted as ΔF/F0 (%), i.e. the change in fluorescence (ΔF) relative to the mean basal fluorescence (F0) before application of buffer or compounds/ligands, to correct for intra- and inter-experimental variations in basal fluorescence among individual wells or to correct for compound-evoked changes in fluorescence. Signal amplitudes evoked in the presence of compounds were normalized to the maximal signal amplitude evoked by 3 µM progesterone in the absence of the compound (set to 1) to ease comparisons between experiments.

human sperm [5] = experiment: Sperm hyperactivation assay (CASA); format: cell-based; details: 10 µM compound, 30 min; for effect on progesterone-induced hyperactivation: 3 µM progesterone
Method: Sperm hyperactivation was assessed in human sperm purified by density gradient centrifugation. Semen samples (n = 7) were allowed to liquefy for 15–30 min at 37°C, and up to 2 ml of liquified semen was layered onto a two-step GM501 gradient system (45%/90%; Gynemed; Sierksdorf, Germany) pre-equilibrated at 37°C. Gradients were centrifuged for 20 min at 400 × g (no break). The 90% pellet was collected, washed in SpermActive medium (Gynemed; composition per manufacturer: NaCl, KCl, MgSO4.7H2O, KH2PO4, 1.77 mM CaCl2.2H2O, D(+)-glucose anhydrous, sodium pyruvate, sodium lactate, EDTA, alanyl-glutamine, essential and non-essential amino acids, 25.71 mM NaHCO3, 15 mM HEPES, 5 g/l human serum albumin, 10 mg/l gentamicin, and phenol red), and incubated for at least 2 h at 37°C, 5% CO2.
For compound testing, sperm suspensions with 7.5 × 10^6 sperm/ml in SpermActive were treated with either DMSO (vehicle) or 10 µM test compound. For basal and induced hyperactivation conditions, DMSO or progesterone (3 µM), respectively, was added. Samples were incubated for 30 min at 37°C, 5% CO2, before motility analysis.
Motility was analyzed using a CASA system (CEROSII^TM Animal Motility, software version 1.16; Hamilton Thorne, Beverly, MA, USA), mounted on an Axiolab 5 microscope (Zeiss, Germany), equipped with a TPi-SX Thermal Plate (Tokai Hit; Shizuoka-ken, Japan) and a JAI CM-040-GE CCD camera (JAI; Tokyo, Japan). Leja slides (20 µm chamber depth; Leja Products B.V., Nieuw-Vennep, The Netherlands) were pre-warmed to 37°C, cleaned with lens paper, and loaded by capillary action with 6 µl sperm suspension; capillary correction was set to 1.3. Sperm tracks were recorded at 37°C using a 10× negative-phase objective, acquiring 60 frames at 60 Hz with 4 ms exposure and gain set to 600. For each sample and condition, 300–500 motile sperm from at least 10 non-overlapping fields were analyzed. Hyperactive sperm were identified using the SORT function with the following Boolean argument: VCL > 150 µm/s and LIN < 50% and ALH > 7 µm. For each sample and condition, the percentage of hyperactive sperm was normalized to the percentage of motile sperm, and the mean of two technical duplicates was reported.
Statistical analysis was performed using GraphPad Prism 10 for Windows (version 10.6.1). Data normality was assessed using Shapiro–Wilk test. Differences between basal and induced hyperactivation were evaluated using a paired t-test, with effective pairing confirmed across all comparisons. P < 0.05 was considered statistically significant.

[6] = 7-HCA and RB substrates (Suppl. Fig. S4A,B), weak effects at ≥5 µM
[7] = 5 µM steroid or triterpenoid, 300 nM 7-HCA

17α-hydroxyprogesterone [reference compound]
effect on heat-induced denaturation of ABHD2^L33–E425 (DSF binding) (ABHD2^L33–E425 [1]; 30 min pre-incubation): no binding was observed

C[C@]12CC[C@@H]3c4ccc(O)cc4CC[C@H]3[C@@H]1CC[C@@H]2O [17β-estradiol]
effect on enzymatic activity of purified ABHD2^FL [2, 6]: did not alter
effect on enzymatic activity of purified ABHD2^L33–E425 (ABHD2^L33–E425 [3]; [7]): did not alter

O=C(N1CCCCC1)N1CCCC[C@@H]1Cc1ccccc1 [(R)-1]
ΔTm shift for ABHD2^L33-425 determined by DSF (ABHD2^L33–E425 [1]): 3.0 °C
IC50 (ABHD2^L33–E425 [3]): 1200 nM
compound-evoked changes in [Ca2+]i (human sperm [4]): only minuscule changes
effect on progesterone-induced Ca2+ signal (amplitude and waveform) (human sperm [4]): similar
effect on progesterone-induced hyperactivation (human sperm [5]): not affected
effect on basal hyperactivation (human sperm [5]): No statistically significant differences; also recorded: did not affect

O=C(N1CCCCC1)N1CCCC[C@@H]1c1ccccc1 [(R)-2]
IC50 [2]: 240 nM
ΔTm shift for ABHD2^L33-425 determined by DSF (ABHD2^L33–E425 [1]): 8.4 °C
IC50 (ABHD2^L33–E425 [3]): 220 nM
compound-evoked changes in [Ca2+]i (human sperm [4]): only minuscule changes
effect on progesterone-induced Ca2+ signal (amplitude and waveform) (human sperm [4]): similar
effect on progesterone-induced hyperactivation (human sperm [5]): not affected
effect on basal hyperactivation (human sperm [5]): No statistically significant differences; also recorded: did not affect

O=C(N1CCCCC1)N1CCCC[C@H]1Cc1ccccc1 [(S)-1]
ΔTm shift for ABHD2^L33-425 determined by DSF (ABHD2^L33–E425 [1]): 2.5 °C
IC50 (ABHD2^L33–E425 [3]): 3000 nM

O=C(N1CCCCC1)N1CCCC[C@H]1c1ccccc1 [(S)-2]
IC50 [2]: 5900 nM
ΔTm shift for ABHD2^L33-425 determined by DSF (ABHD2^L33–E425 [1]): 2.7 °C
IC50 (ABHD2^L33–E425 [3]): 2100 nM

Cc1ccc(C2CCCCN2C(=O)N2CCCCC2)cc1 (stereo not shown) [Compound 5]
IC50 [2]: 4200 nM
effect on melting temperature / thermal stability of ABHD2^L33-E425 (DSF), in words (ABHD2^L33–E425 [1]; 10 µM compound, 30 min pre-incubation): increased melting temperature
ΔTm shift for ABHD2^L33-425 determined by DSF (ABHD2^L33–E425 [1]): 3.3 °C
IC50 (ABHD2^L33–E425 [3]): 940 nM

CCCCC/C=C\C/C=C\C/C=C\C/C=C\CCCC(=O)Oc1ccc2ccc(=O)oc2c1 [Compound 7-HCA, 7-hydroxycoumarinyl arachidonate]
Km ([2]; read-out: Km of substrate hydrolysis by ABHD2^FL): 59 µM
kcat of substrate hydrolysis by ABHD2^L33–E425 (ABHD2^L33–E425 [3]): 2.8 pmol substrate/min/pmol enzyme
Km (ABHD2^L33–E425 [3]; read-out: Km of substrate hydrolysis by ABHD2^L33–E425): 0.28 µM

CC(C)CCC[C@@H](C)[C@H]1CC[C@H]2[C@@H]3CC=C4C[C@@H](O)CC[C@]4(C)[C@H]3CC[C@]12C [cholesterol]
effect on enzymatic activity of purified ABHD2^FL [2, 6]: did not alter
effect on heat-induced denaturation of ABHD2^L33–E425 (DSF binding) (ABHD2^L33–E425 [1]; 30 min pre-incubation): did not affect
effect on enzymatic activity of purified ABHD2^L33–E425 (ABHD2^L33–E425 [3]; [7]): did not alter

C[C@]12CCC(=O)C=C1CC[C@@H]1[C@@H]2[C@@H](O)C[C@@]2(C)[C@H]1CC[C@]2(O)C(=O)CO [hydrocortisone]
effect on enzymatic activity of purified ABHD2^FL [2, 6]: did not alter
effect on heat-induced denaturation of ABHD2^L33–E425 (DSF binding) (ABHD2^L33–E425 [1]; 30 min pre-incubation): did not affect
effect on enzymatic activity of purified ABHD2^L33–E425 (ABHD2^L33–E425 [3]; [7]): did not alter

C[C@]12CC[C@H]3[C@@H](CCC4=CC(=O)CC[C@@]43C)[C@@H]1CC[C@@H]2O [testosterone]
effect on enzymatic activity of purified ABHD2^FL [2]: did not alter
effect on heat-induced denaturation of ABHD2^L33–E425 (DSF binding) (ABHD2^L33–E425 [1]; 30 min pre-incubation): did not affect
effect on enzymatic activity of purified ABHD2^L33–E425 (ABHD2^L33–E425 [3]): did not alter

pregnenolone sulfate
effect on enzymatic activity of purified ABHD2^FL [2]: weak inhibitory action
effect on heat-induced denaturation of ABHD2^L33–E425 (DSF binding) (ABHD2^L33–E425 [1]; 30 min pre-incubation): did not affect
effect on enzymatic activity of purified ABHD2^L33–E425 (ABHD2^L33–E425 [3]): but not on ABHD2^L33–E425
